What was measured:
BMX = BMX (Homo sapiens (Human), UniProt P51813); experiment: BMX Z'-LYTE kinase assay; format: biochemical; conditions: 1 h pre-incubation, Km ATP
Experimental: (§1) BMX, TXK, EGFR, ERBB2, ERBB4, JAK3, BLK kinase activity was measured using the Z′-LYTE assay at Thermo Fisher. A 10-point dose response (final concentration in assay ranged from 10 μM to 0.5 nM in 3-fold dilution per dilution step) was generated with 1 h incubation of the test compound with the kinase prior to initiation of the kinase reaction by the addition of ATP. ATP concentration in the assay was Km ATP for the different kinases. IC50 values are determined by curve fitting of the experimental results at Thermo Fisher.

CYP2D6 = CYP2D6 (Homo sapiens (Human), UniProt P10635); experiment: CYP inhibition, CYP2D6; format: in vitro ADME
CYP2D6, sequence (P10635 whole entry): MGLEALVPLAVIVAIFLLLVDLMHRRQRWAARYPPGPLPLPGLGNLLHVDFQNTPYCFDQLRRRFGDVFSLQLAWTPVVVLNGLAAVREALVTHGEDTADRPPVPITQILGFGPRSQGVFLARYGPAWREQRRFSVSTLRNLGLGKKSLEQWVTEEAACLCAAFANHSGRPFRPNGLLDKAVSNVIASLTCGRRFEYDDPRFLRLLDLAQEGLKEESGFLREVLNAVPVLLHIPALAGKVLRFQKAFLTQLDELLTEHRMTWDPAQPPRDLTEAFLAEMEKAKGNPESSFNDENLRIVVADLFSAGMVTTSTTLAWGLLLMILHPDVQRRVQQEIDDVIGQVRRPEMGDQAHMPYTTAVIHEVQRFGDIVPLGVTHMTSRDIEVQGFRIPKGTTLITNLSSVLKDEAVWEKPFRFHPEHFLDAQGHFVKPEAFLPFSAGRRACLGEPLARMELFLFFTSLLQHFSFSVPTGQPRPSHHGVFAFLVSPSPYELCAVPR

[1] = test system: all available kinases (KINOMEscan); experiment: KINOMEscan (DiscoveRx scanMAX) profiling, selectivity score; format: binding; conditions: single dose of 1 μM
Experimental: Kinase profiling was performed with M27 was done at DiscoveRx at a single dose of 1 μM on all available kinases (KINOMEscan). The overall kinase selectivity score is in Table 6. […] Kinases inhibited >65% at 1 μM for M27 were followed up with a dose response at DiscoveRx. The M27 had IC50 values <1 μM for almost the same set of kinases with exception of TXK, but with additional inhibition of BRK (PTK6).

JAK3 = JAK3 (Homo sapiens (Human), UniProt P52333); experiment: JAK3 Z'-LYTE kinase assay; format: biochemical; conditions: 1 h pre-incubation, Km ATP
JAK3, sequence (P52333 whole entry): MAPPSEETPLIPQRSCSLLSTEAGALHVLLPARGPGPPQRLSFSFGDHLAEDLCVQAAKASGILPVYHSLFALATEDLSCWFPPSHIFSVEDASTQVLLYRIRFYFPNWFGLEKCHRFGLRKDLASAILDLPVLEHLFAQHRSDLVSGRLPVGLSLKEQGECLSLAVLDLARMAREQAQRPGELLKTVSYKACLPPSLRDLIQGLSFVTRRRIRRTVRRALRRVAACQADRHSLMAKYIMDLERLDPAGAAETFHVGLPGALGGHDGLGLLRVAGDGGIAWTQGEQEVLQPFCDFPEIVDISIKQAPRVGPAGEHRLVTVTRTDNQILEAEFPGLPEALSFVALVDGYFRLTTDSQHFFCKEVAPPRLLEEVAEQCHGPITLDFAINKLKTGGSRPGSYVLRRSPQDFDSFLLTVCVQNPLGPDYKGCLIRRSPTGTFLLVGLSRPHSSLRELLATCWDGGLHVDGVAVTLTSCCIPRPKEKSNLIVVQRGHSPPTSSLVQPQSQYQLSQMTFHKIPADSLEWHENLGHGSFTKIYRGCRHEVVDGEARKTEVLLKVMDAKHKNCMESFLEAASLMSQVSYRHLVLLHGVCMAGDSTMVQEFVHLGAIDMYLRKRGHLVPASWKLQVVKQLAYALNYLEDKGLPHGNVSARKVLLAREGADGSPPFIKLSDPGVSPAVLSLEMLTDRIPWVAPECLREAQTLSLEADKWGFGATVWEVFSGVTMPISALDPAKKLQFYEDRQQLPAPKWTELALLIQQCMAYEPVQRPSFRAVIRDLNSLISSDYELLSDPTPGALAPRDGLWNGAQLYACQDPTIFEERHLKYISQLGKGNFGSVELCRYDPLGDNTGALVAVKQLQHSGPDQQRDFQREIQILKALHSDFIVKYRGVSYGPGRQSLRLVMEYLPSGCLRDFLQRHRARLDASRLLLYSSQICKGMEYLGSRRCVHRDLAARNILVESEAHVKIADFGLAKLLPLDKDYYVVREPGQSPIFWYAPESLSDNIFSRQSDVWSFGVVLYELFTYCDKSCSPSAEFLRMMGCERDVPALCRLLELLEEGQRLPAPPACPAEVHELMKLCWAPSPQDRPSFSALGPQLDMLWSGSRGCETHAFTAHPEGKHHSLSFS
Experimental: as §1

BTK wild type (BTK-WT) = BTK wild type (BTK-WT) (Homo sapiens (Human), UniProt Q06187); experiment: BTK-WT LanthaScreen, inhibition constants from IC50 over time; format: binding
BTK wild type (BTK-WT), sequence (Q06187 whole entry): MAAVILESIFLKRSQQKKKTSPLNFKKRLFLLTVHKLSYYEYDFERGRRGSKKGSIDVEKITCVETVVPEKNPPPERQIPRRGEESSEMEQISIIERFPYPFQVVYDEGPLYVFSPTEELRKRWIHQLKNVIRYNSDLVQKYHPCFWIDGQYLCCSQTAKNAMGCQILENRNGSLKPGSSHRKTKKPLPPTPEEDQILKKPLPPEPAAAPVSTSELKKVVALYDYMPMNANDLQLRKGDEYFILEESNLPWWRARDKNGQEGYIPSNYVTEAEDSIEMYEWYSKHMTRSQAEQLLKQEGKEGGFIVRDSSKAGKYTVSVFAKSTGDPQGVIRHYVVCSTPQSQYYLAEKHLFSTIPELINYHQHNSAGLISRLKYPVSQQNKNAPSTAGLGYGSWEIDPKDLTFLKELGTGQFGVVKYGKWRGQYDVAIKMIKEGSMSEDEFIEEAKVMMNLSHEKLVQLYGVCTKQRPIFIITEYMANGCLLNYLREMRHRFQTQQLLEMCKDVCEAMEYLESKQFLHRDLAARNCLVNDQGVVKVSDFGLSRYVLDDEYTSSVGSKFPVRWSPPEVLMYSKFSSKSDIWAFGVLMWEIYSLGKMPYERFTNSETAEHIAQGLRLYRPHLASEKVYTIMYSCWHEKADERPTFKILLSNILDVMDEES
Experimental: Inhibitory activity on BTK wild type (BTK-WT) and BTK Cys481Ser mutant (BTK-C481S) was measured using the LanthaScreen assay technology from ThermoFisher according to manufacturer's protocol. BTK-WT or BTK-C481 S (Genscript) were mixed and diluted with Eu-anti-GST antibody (Invitrogen) in Kinase buffer (50 mM Hepes pH 7.5+10 mM MgCl2+1 mM EGTA+0.01% Brij-35) to 15 and 6 nM, respectively. Final concentration in the assay for enzyme and antibody are 5 and 2 nM, respectively. Tracer (Kinase Tracer 236, Invitrogen) is diluted in Kinase buffer to 90 nM. Final concentration in the assay is 30 nM. Serial dilutions log 10 from 1 mM to 3.16 nM of test compounds are made in 100% DMSO. The dilutions in DMSO are then diluted 33-fold in Kinase buffer (50 mM Hepes pH 7.5+10 mM MgCl2+1 mM EGTA+0.01% Brij-35). The assay is performed as follows: 5 μL/well of BTK-WT or BTK-C481S enzyme and EU-anti-GST antibody dilution is mixed with 5 μL/well tracer dilution and 5 μL/well of compound dilution in Kinase buffer. Final compound concentration in the assay ranged from 10 μM to 0.316 nM, with 1% DMSO final concentration in assay. Mixture was incubated at room temperature in the dark and at different times of incubation (5 min, 10 min, 20 min, 30 min, 40 min, 60 min, 90 min, 120 min, 180 min and 300 min) the TR-FRET signal was read at 615 nm and 665 nm. The ratio 665/615 was used to calculate values expressed as percentage of the difference in readout (S/N) of the controls with and without Tracer. IC50 values for each timepoint were determined by curve fitting of the experimental results in Dotmatics. […] The kinetics in covalent binding are determined by affinity of the compound to BTK and by the reactivity of the electrophile. Using the data for M27 from the LanthaScreen assay on BTK-WT, the inhibition constants can be calculated for the parent and the metabolite. […] The Ki and kinact parameters were derived from IC50 values over time, according to the method of Krippendorff et al (J Biomol Screen. 2009, 14(8):913-23) with measured Km=102 nM for the tracer used in the assay.

BMX, sequence (P51813 whole entry): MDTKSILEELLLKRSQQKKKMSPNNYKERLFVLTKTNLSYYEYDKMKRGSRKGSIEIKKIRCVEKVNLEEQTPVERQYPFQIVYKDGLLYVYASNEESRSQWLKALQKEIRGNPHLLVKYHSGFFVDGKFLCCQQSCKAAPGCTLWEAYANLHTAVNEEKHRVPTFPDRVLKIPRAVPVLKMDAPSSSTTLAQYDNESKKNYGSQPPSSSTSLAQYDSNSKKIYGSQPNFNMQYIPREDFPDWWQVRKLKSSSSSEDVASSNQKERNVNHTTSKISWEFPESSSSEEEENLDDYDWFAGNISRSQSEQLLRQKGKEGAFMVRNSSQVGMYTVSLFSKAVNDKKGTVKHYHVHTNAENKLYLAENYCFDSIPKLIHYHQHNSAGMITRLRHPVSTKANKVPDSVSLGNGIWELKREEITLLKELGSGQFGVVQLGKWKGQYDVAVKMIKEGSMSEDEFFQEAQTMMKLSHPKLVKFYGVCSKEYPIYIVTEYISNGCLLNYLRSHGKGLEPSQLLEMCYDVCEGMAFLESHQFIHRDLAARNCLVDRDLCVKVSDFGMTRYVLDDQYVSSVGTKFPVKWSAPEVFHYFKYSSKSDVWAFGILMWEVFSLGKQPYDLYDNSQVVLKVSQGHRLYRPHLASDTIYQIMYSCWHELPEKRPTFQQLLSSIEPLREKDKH

CC#CC(=O)NCCCC(=O)c1nc(-c2ccc(C(=O)Nc3ccccn3)cc2)c2c(N)nccn12 [Formula (I), 4-(8-amino-3-(4-(but-2-ynamido)butanoyl)imidazo[1,5-a]pyrazin-1-yl)-N-(pyridin-2-yl)benzamide]
IC50 (BMX): 15 ± 2 nM | CYP2D6 inhibition (CYP2D6): does not inhibit | Selectivity Score S(10) [1]: 0.005 | Selectivity Score S(35) [1]: 0.013 | IC50 (JAK3): > 10000 nM | kinact/KI (BTK wild type (BTK-WT)): 16500 M⁻¹ s⁻¹ | kinact (BTK wild type (BTK-WT); derived from IC50 values over time (Krippendorff method)): 0.0031 ± 0.0003 s⁻¹ | Ki (BTK wild type (BTK-WT); derived from IC50 values over time (Krippendorff method), tracer Km=102 nM): 188 ± 9 nM

From patent US10858364B2, “Imidazopyrazine inhibitors of Bruton's tyrosine kinase” (Acerta Pharma B.V., priority 2016, dated 2020)
